Values belong to the compound of their own block, whether it stands above or below them. Active and inactive are the calls of the source.
Tests used:
[1] = target: Sphingosine 1-phosphate receptor 2 (Homo sapiens, UniProt O95136); assay: Dose Response Cell Based Assay for Agonists of the S1P2 Receptor. [Related pubchem assays: 729, 736, 843 ]; format: functional
[2] = target: T1, Aminopeptidase N (Plasmodium falciparum FcB1/Columbia, UniProt O96935); assay: malaria alanyl aminopeptidase activity blockers – biochemical, fluorogenic H-Leu-NHMec substrate, 1536-well (AID 1445); parameters: species or system Plasmodium falciparum 3D7, 3D7
T1 sequence (O96935 whole entry): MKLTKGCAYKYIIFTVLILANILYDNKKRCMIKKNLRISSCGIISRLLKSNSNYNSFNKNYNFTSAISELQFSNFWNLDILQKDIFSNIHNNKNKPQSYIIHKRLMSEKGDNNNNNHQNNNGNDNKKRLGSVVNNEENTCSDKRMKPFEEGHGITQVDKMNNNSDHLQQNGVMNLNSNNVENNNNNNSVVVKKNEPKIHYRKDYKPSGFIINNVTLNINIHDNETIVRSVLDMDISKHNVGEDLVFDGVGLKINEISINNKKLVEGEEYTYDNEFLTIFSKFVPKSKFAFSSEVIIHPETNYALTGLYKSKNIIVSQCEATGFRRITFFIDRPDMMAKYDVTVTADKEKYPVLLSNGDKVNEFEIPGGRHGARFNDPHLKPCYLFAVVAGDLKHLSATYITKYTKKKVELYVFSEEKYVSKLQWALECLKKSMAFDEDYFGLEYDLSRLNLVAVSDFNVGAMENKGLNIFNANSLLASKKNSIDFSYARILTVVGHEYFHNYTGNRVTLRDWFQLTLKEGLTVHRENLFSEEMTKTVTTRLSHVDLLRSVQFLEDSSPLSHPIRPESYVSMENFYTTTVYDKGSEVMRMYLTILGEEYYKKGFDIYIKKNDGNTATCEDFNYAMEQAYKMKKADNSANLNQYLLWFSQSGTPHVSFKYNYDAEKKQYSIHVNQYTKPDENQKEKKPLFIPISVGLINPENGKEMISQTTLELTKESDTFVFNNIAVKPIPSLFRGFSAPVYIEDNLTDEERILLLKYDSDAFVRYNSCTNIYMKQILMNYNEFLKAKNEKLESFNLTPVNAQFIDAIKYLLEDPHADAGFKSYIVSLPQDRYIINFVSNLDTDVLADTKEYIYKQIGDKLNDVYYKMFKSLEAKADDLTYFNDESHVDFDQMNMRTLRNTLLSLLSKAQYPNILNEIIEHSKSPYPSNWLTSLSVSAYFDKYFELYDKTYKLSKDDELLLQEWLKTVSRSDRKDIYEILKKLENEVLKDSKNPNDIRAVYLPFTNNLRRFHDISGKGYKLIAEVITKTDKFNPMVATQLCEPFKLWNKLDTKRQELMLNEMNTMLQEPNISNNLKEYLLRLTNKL

[3] = target: Transthyretin (Homo sapiens, UniProt P02766); assay: Luminescence-based cell-based high throughput dose response assay to identify activators of Transthyretin (TTR) transcription.; format: functional
[4] = inhibitors acting on PAX2 in cells – cell-based, plate reader, dry powder samples, selectivity assay for PAX8 inhibitor project, dose response (AID 743048); format: functional;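 also: HEK293 cells carrying a WT1 promoter luciferase reporter driven by expressed Pax2; potency is for inhibition of Pax2 driven reporter signal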
[5] = general cell-killing toxicity readout – plate reader, dry powder samples, cytotoxicity control for PAX8 inhibitor project, dose response (AID 743021); format: functional, cell-based
[6] = PAX5 cellular inhibition readout – cell-based, plate reader, dry powder samples, selectivity assay for PAX8 inhibitor project, dose response (AID 743047); format: functional;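 also: HEK293 cells carrying a Pax5 driven CD19 promoter luciferase reporter; potency of inhibitors that lower reporter luminescence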
[7] = COV362 cell viability loss – plate reader, dry powder, SA12, cytotoxicity control for PAX8 inhibitor project, dose response (AID 743144); format: functional, cell-based
[8] = OV-90 cell viability loss – plate reader, dry powder, SA8, PAX8 inhibitor project, dose response (AID 743149); format: functional, cell-based
[9] = toxicity toward immortalized ovarian surface epithelium – cell-based, plate reader, dry powder samples, cytotoxicity control for PAX8 inhibitor project, dose response (AID 743045); format: functional
[10] = PAX8-dependent cell viability loss – plate reader, dry powder, dose response (AID 743049); format: functional, cell-based
[11] = target: Paired box protein Pax-8 (Homo sapiens, UniProt Q06710); assay: PAX8 transcriptional activity inhibition in RMG-I – RMG-I cells, luciferase, cherry-pick, dose response (AID 687027); format: functional, cell-based;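 also: luciferase reporter driven by Pax8 target thyroperoxidase promoter measured by SteadyGlo luminescence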
[12] = IGROV1 cell killing – plate reader, dry powder samples, PAX8 inhibitor project, dose response (AID 743043); format: functional, cell-based; conditions: IGROV-1
[13] = COV434 cell viability loss – plate reader, dry powder, SA7, cytotoxicity control for PAX8 inhibitor project, dose response (AID 743145); format: functional, cell-based
[14] = OVCAR4 cell viability loss – plate reader, dry powder, SA11, cytotoxicity control for PAX8 inhibitor project, dose response (AID 743150); format: functional, cell-based; conditions: OVCAR-4
[15] = SNU-C1 cell viability reduction, dose response, CellTiter-Glo luminescence (AID 1117323); format: functional, cell-based
[16] = Reduced DLD-1 viability, concentration-response, CellTiter-Glo luminescence (AID 1117352); format: functional
[17] = HCT116 cell viability decrease, GSK3B pretreatment – CellTiter-Glo, IC50, dose response (AID 1117339); format: functional; conditions: HCT-116
[18] = CellTiter-Glo luminescence survival assay, SW480 colon tumor line, concentration-response curve, half-maximal inhibitory concentration (AID 1117338); format: functional
[19] = cytotoxicity toward HT-29 cells – cell-based, CellTiter-Glo luminescence, IC50, dose response (AID 1117330); format: functional
[20] = RKO cell viability reduction, dose response, CellTiter-Glo luminescence (AID 1117322); format: functional
[21] = cytotoxicity toward HCT116 cells – cell-based, CellTiter-Glo luminescence, IC50, dose response (AID 1117332); format: functional; conditions: HCT-116
[22] = cytotoxicity toward Colo320 cells – cell-based, CellTiter-Glo luminescence, IC50, dose response (AID 1117334); format: functional; conditions: COLO 320
[23] = growth inhibition of PfATP4-mutant resistant parasites – NITD609-resistant line, SYBR Green, dry powder, dose response (AID 1159571); format: functional, cell-based;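 also: parasites synchronized at ring stage by sorbitol before testing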
[24] = toxicity to human HepG2 hepatoma cells – cell-based, plate reader, dry powder samples, cytotoxicity control, dose response (AID 1159569); format: functional;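 also: inhibitor potency with signal falling toward the positive control level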
[25] = Plasmodium falciparum Dd2 Sybr green parasite growth Measured in Cell-Based and Microorganism Combination System Using Plate Reader - 2153-01_Inhibitor_Dose_DryPowder_Activity_Set10.; format: functional
[26] = growth inhibition of yeast DHODH-expressing 3D7 parasites – SYBR Green, dry powder samples, dose response (AID 1159570); format: functional, cell-based;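 also: parasite growth measured after 72 hours of compound exposure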
[27] = Dd2 malaria parasite growth inhibition potency – SYBR Green, dry powder samples, dose response (AID 1159566); format: functional, cell-based;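 also: potency for growth inhibition with lower SYBR green DNA signal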
[28] = P. falciparum Dd2 growth inhibitors, dose response, SYBR Green, cherry-picked samples (AID 1159567); format: functional, cell-based
[29] = Dd2 parasite growth inhibition in erythrocytes – SYBR Green, dry powder samples, set 9, dose response (AID 1159568); format: functional, cell-based
[30] = target: ELAV-like protein 1 (Homo sapiens, UniProt Q15717); assay: Identify HuR specific inhibitors.; format: functional
ELAV-like protein 1, sequence (Q15717 whole entry): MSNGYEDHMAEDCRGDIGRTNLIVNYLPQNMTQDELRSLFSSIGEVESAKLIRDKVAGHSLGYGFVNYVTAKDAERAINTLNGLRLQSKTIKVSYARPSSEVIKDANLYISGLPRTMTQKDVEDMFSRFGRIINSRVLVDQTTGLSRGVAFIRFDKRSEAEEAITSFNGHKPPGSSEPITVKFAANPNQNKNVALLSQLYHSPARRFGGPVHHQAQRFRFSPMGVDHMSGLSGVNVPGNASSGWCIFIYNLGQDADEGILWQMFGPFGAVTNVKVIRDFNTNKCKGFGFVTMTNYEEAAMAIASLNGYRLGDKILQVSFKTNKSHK

Paired box protein Pax-8, sequence (Q06710 whole entry): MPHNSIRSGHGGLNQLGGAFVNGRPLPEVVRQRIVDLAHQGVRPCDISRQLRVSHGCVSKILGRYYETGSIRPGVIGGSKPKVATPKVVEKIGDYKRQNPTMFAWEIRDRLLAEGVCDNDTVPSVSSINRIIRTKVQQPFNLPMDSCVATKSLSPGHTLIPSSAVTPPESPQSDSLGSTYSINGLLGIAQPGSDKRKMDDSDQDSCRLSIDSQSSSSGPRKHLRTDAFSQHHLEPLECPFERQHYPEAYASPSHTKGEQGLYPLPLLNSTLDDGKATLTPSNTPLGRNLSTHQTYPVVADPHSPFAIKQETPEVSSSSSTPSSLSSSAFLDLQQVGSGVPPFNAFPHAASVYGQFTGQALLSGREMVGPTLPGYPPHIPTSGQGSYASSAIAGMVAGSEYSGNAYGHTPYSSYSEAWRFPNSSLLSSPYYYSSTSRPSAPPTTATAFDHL
Sphingosine 1-phosphate receptor 2, sequence (O95136 whole entry): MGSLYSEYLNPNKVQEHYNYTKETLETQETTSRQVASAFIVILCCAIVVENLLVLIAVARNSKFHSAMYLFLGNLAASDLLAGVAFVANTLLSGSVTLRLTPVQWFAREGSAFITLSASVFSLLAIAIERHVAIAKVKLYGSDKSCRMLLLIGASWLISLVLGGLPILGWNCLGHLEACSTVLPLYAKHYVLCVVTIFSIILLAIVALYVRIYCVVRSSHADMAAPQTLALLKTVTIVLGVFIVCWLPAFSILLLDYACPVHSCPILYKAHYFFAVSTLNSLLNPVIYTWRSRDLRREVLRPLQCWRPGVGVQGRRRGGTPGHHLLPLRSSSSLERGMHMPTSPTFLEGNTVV

EC50 [1]: > 50 µM (not active)
IC50 [2]: 61.8 µM (active)
Structure (SMILES): O=C(Nc1ccccn1)Nc1cccs1

EC50 [3]: > 167 µM (inactive)
Structure (SMILES): Cn1nccc1C(=O)N1CCc2ccccc21

Structure (SMILES): O=C(Nc1cccc(F)c1)N1CCCCN2[C@H](CO)[C@@H](c3ccc(C#Cc4ccccc4)cc3)[C@H]2C1
AC50 [4]: 20.8 µM (active)
AC50 [5]: 24.4 µM (active)
AC50 [6]: 21 µM (active)
AC50 [7]: 17 µM (active)
AC50 [8]: 12.6 µM (active)
AC50 [9]: 21.2 µM (active)
AC50 [10]: 15.5 µM (active)
AC50 [11]: 15.4 µM (active)
AC50 [12]: 16 µM (active)
AC50 [13]: 11.6 µM (active)
AC50 [14]: 31.1 µM (active)

Structure (SMILES): CO[C@H]1O[C@@H]2O[C@@]3(C)CC[C@H]4[C@H](C)CC[C@@H]([C@@H]1C)[C@@]24OO3
IC50 [15]: > 20 µM (inactive)
IC50 [16]: > 20 µM (inactive)
IC50 [17]: > 20 µM (inactive)
IC50 [18]: > 20 µM (inactive)
IC50 [19]: > 20 µM (inactive)
IC50 [20]: > 20 µM (inactive)
IC50 [21]: > 20 µM (inactive)
IC50 [22]: > 20 µM (inactive)

Structure (SMILES): COc1ccc(-c2ccccc2[C@H]2[C@@H](C#N)N(C(=O)C3CCCC3)[C@H]2CO)cc1
AC50 [23]: 1.78 µM (active)
AC50 [24]: 63.3 µM (active)
AC50 [25]: 1.11 µM (active)
AC50 [26]: 0.368 µM (active)
AC50 [27]: 0.346 µM (active)
AC50 [28]: 0.479 µM (active)

Structure (SMILES): C/C=C/c1ccc([C@H]2[C@@H](CO)N(CC3CCCCC3)[C@@H]2CNC(C)C)cc1
AC50 [29]: 0.316 µM (active)
AC50 [23]: 0.294 µM (active)
AC50 [24]: 49.3 µM (active)
AC50 [26]: 0.396 µM (active)
AC50 [27]: 0.231 µM (active)
AC50 [28]: 0.494 µM (active)

Structure (SMILES): CSC1=NC(=O)/C(=N\Nc2ccc([As](=O)(O)O)cc2)C(N)=N1
IC50 [30]: 2.7 µM (inactive)
